Assay results as given in US5055480A, “Topically active ocular gem-diacylthiadiazole sulfonamide carbonic anhydrase inhibitors” (Research Corporation Technologies, Inc., priority 1990, dated 1991).

Columns and labels:
[1] = target: purified carbonic anhydrase (Homo sapiens, UniProt P00918); test: Enzymatic carbonic anhydrase inhibition assay (modification of Maren's micromethod); assay type: biochemical; details: relative to acetazolamide control = 100%
Method: CAI efficacy and potency are assessed using an enzymatic method. […] Essentially, a reaction volume of 0.8 mL containing a carbonate/bicarbonate buffer, phenol red, purified carbonic anhydrase, and inhibitor is maintained at 0° and saturated with CO2 by constant bubbling. The time required for acidification to a color change endpoint is monitored as the dependent variable.

[2] = oral administration; cited from earlier work
[3] = topical CAI, lowering of IOP; cited from earlier work

| SMILES | Relative CA inhibition Potency [1] [%] | further results |
| --- | --- | --- |
| NS(=O)(=O)c1nnc(NC(CC(=O)O)C(=O)O)s1 (stereo not drawn) [Example 2] | 48 | – |
| NS(=O)(=O)c1nnc(NC(CCC(=O)O)C(=O)O)s1 (stereo not drawn) [Example 3] | 22 | – |
| NS(=O)(=O)c1nnc(NC(CCCC(=O)O)C(=O)O)s1 (stereo not drawn) [Example 4] | 20 | – |
| NS(=O)(=O)c1nnc(NC(CCC(=O)O)CC(=O)O)s1 (stereo not drawn) [Example 5] | 60 | – |
| CC(=O)Nc1nnc(S(N)(=O)=O)s1 [acetazolamide, 2-acetylamino-1,3,4-thiadiazole-5-sulfonamide] | – | effect on IOP [2]: decrease IOP |
| Nc1ccc2nc(S(N)(=O)=O)sc2c1 [aminozolamide] | – | efficacy in clinical trial [3]: partially effective |
